{
  "source": "ChEMBL document CHEMBL1146233",
  "about": "“Modification of the ceramide moiety of isoglobotrihexosylceramide on its agonist activity in stimulation of invariant natural killer T cells” (J Med Chem, 2007)",
  "key": {"iNKT [1]": {"test_system": "iNKT", "assay": "Stimulation of hCD1d-restricted human iNKT cells assessed as IFN-gamma release at 10 ng/mL by ELISA", "format": "functional, cell-based"}, "iNKT [2]": {"test_system": "iNKT", "assay": "Stimulation of hCD1d-restricted human iNKT cells assessed as IL4 release at 10 ng/mL by ELISA", "format": "functional, cell-based"}, "[3]": {"assay": "Binding affinity to T cell receptor", "format": "cell-based, Homo sapiens"}},
  "note": "Active and inactive are the calls of the source. The rule behind the calls is not given here.",
  "data": [
    {"smiles": "CCCCCCCCCCCCCCCCCCCCCCCCCC(=O)N[C@@H](CO[C@H]1O[C@H](CO)[C@H](O)[C@H](O)[C@H]1O)[C@H](O)[C@H](O)CCCCCCCCCCCCCC", "note": "[RGI-7000]", "values": [
      {"measurement": "Activity", "setting": "iNKT [1]", "result": "Active"},
      {"measurement": "Activity", "setting": "iNKT [2]", "result": "Active"},
      {"measurement": "Kd", "setting": "[3]", "result": 350, "unit": "nM"}
    ]}
  ]
}
